Source: patent EP0590919A1, “Therapeutic agents for parkinson's disease” (KYOWA HAKKO KOGYO CO., LTD., priority 1992, dated 1994)

What was measured:
dd-strain male mice = assay: Acute toxicity test (minimum lethal dose, oral); type: in vivo; conditions: oral administration, three mice per group, mortality seven days after administration
Description: Test compounds were orally administered to groups of dd-strain male mice weighing 20 ± 1 g, each group consisting of three mice. Seven days after the administration, minimum lethal dose (MLD) of each compound was determined by observing the mortality.

[1] = tested on: Haloperidol-Induced Catalepsy; assay: Effect on haloperidol-induced catalepsy; type: in vivo, mice; conditions: for Number of the Animals Showing Remission: of five mice, catalepsy score not more than 4 points; for Number of the Animals Showing Remission / Remission Rate (%) / Total Score: 10 mg/kg orally; for Remission Rate (%): rate of decrease in total score based on control group; for Total Score: total catalepsy score of five mice (25 points at the full), haloperidol 1.0 mg/kg i.p.; for ED50: Mus musculus, 1 h, ten mice at each dose, effective = catalepsy score 3 or less, Probit analysis, oral, read-out: ED₅₀
Description: Haloperidol (Janssen Pharmaceutica) suspended in 0.3% CMC was intraperitoneally administered to each mouse at a dose of 1.0 mg/kg. Test compounds were suspended in 0.3% CMC or in injectable distilled water (Otsuka Pharmaceutical Co., Ltd.) containing Tween 80. L-DOPA (Kyowa Hakko Kogyo Co., Ltd.) and benserazide hydrochloride (Kyowa Hakko Kogyo Co., Ltd.) were suspended in 0.3% CMC. One hour after the haloperidol administration, the test compound suspensions and the control suspension [injectable distilled water (Otsuka Pharmaceutical Co., Ltd.) containing Tween 80] containing no test compound were orally administered to separate groups of the mice (0.1 ml per 10 g of body weight). One hour after the administration of the test compound, the forelimbs of each mouse and subsequently the hindlimbs of the same mouse were placed on a 4.5 cm-high, 1.0 cm-wide bar and catalepsy was estimated. […] The catalepsy score and the standard of judgment are shown below. […] The number of the animals showing remission against catalepsy is the number of the mice for which the catalepsy score was not more than 4 points. […] The ED₅₀ values were calculated by Probit analysis.

A₂ receptor = target: T1, A₂ receptor (Rattus norvegicus, UniProt P30543); assay: Adenosine A₂ receptor binding test (³H-NECA binding); conditions: ³H-NECA binding, rat corpus striatum, read-out: Inhibition (%) A₂ Receptor; for inhibition at 100 µM: 10⁻⁴M; for inhibition at 10 µM: 10⁻⁵M; for inhibition at 1 µM: 10⁻⁶M; for inhibition at 0.1 µM: 10⁻⁷M
T1 construct: from tissue; host or cells: rat corpus striatum membrane preparation
T1 sequence (P30543 whole entry): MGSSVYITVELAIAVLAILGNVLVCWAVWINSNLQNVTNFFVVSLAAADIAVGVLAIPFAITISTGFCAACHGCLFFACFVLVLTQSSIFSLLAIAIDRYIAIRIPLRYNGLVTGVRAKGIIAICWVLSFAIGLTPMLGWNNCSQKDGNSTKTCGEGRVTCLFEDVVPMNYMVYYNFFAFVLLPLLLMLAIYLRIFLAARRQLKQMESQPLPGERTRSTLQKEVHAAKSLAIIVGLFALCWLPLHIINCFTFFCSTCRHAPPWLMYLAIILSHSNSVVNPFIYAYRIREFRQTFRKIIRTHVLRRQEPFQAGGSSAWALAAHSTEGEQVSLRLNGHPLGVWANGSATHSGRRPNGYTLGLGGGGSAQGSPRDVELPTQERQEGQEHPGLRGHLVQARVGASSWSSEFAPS
Description: The similar procedure as in the above-described adenosine A₁ receptor binding test was repeated using rat corpus striatum to obtain the final precipitate of the tissue thereof. The precipitate was suspended in 50 mM Tris HCl buffer containing 10 mM magnesium chloride and 0.02 unit/mg tissue of adenosine deaminase (manufactured by Sigma Co.) to give a tissue concentration of 5 mg (wet weight)/ml.
The mixture solution was allowed to stand at 25°C for 120 minutes and then treated in the same manner as in the adenosine A₁ receptor binding test to determine the radioactivity bound to the A₂ receptors.
The inhibition rate of the test compound against the binding of A₂ receptor (³H-NECA binding) was calculated by the following equation: [formula] [Notes] • 1.

Structure (SMILES) | MLD (dd-strain male mice) [mg/kg] | Number of the Animals Showing Remission [1] | Remission Rate (%) [1] [%] | Total Score [1] | inhibition at 100 µM (A₂ receptor) [%] | inhibition at 10 µM (A₂ receptor) [%] | ED50 [1] [mg/kg] | inhibition at 1 µM (A₂ receptor) [%] | inhibition at 0.1 µM (A₂ receptor) [%]
CCn1c(=O)c2[nH]c(/C=C/c3cccc(OC)c3[N+](=O)[O-])nc2n(CC)c1=O [Compound 63, (E)-1,3-Diethyl-8-(3-methoxy-2-nitrostyryl)xanthine] | > 300 | 3 | 32 | 17 | 79 | 74 |  |  | 
CCOc1ccc(/C=C/c2nc3c(c(=O)n(CC)c(=O)n3CC)n2C)cc1 [Compound 36, (E)-8-(4-Ethoxystyryl)-1,3-diethyl-7-methylxanthine] | > 300 | 5 | 76 | 6 |  |  | 1.5 | 101 | 71
COc1ccc(/C=C/c2nc3c(c(=O)n(C)c(=O)n3C)n2C)c(OC)c1C [Compound 32, (E)-8-(2,4-Dimethoxy-3-methylstyryl)caffeine] | > 100 | 4 | 32 | 17 | 98 | 82 |  | 84 | 83
CCn1c(=O)c2c(nc(/C=C/c3cc(C)c(OC)cc3C)n2C)n(CC)c1=O [Compound 12, (E)-1,3-Diethyl-8-(4-methoxy-2,5-dimethylstyryl)-7-methylxanthine] | > 300 | 5 | 52 | 12 |  |  | 2.7 |  | 
COc1ccc(/C=C/c2nc3c(c(=O)n(C)c(=O)n3C)n2C)c(Cl)c1OC [Compound 52, (E)-8-(2-Chloro-3,4-dimethoxystyryl)caffeine] | > 300 | 5 | 60 | 10 | 83 | 81 | 1.7 | 88 | 78
CCn1c(=O)c2c(nc(/C=C/c3ccc(OC)cc3OC)n2C)n(CC)c1=O [Compound 6, (E)-8-(2,4-Dimethoxystyryl)-1,3-diethyl-7-methylxanthine] | > 300 | 5 | 76 | 6 |  |  | 1.7 |  | 
CCn1c(=O)c2c(nc(/C=C/c3ccc(OC)c(Br)c3)n2C)n(CC)c1=O [Compound 56, (E)-8-(3-Bromo-4-methoxystyryl)-1,3-diethyl-7-methylxanthine] | > 100 | 5 | 44 | 14 | 99 | 97 |  | 92 | 74
CCn1c(=O)c2c(nc(/C(F)=C\c3ccccc3)n2C)n(CC)c1=O [Compound 76, (E)-1,3-Diethyl-8-(α-fluorostyryl)-7-methylxanthine] | > 100 | 4 | 40 | 15 |  |  |  | 69 | 30
CCn1c(=O)c2c(nc(/C=C/c3ccc(OC)c(OC)c3Cl)n2C)n(CC)c1=O [Compound 50, (E)-8-(2-Chloro-3,4-dimethoxystyryl)-1,3-diethyl-7-methylxanthine] | > 300 | 4 | 24 | 19 | 93 | 88 | 3.8 | 95 | 88
CCn1c(=O)c2c(nc(/C=C/c3cccc(Cl)c3)n2C)n(CC)c1=O [Compound 70, (E)-8-(3-Chlorostyryl)-1,3-diethyl-7-methylxanthine] | > 300 | 4 | 44 | 14 |  |  |  | 84 | 76
CCn1c(=O)c2c(nc(/C=C/c3cc(C)ccc3C)n2C)n(CC)c1=O [Compound 34, (E)-8-(2,5-Dimethylstyryl)-1,3-diethyl-7-methylxanthine] | > 300 | 5 | 68 | 8 | 94 | 90 | 2.6 | 93 | 86
COc1ccc(/C=C/c2nc3c([nH]2)c(=O)n(C)c(=O)n3C)c(OC)c1C [Compound 31, (E)-8-(2,4-Dimethoxy-3-methylstyryl)theophylline] | > 100 | 4 | 36 | 16 | 79 | 89 |  | 82 | 74
CCn1c(=O)c2[nH]c(/C=C/c3cc(OC)cc(OC)c3)nc2n(CC)c1=O [Compound 67, (E)-8-(3,5-Dimethoxystyryl)-1,3-diethylxanthine] | > 100 | 5 | 64 | 9 |  |  |  | 73 | 73
CCCOc1ccc(/C=C/c2nc3c(c(=O)n(CC)c(=O)n3CC)n2C)cc1 [Compound 38, (E)-1,3-Diethyl-7-methyl-8-(4-propoxystyryl)xanthine] | > 300 | 4 | 68 | 8 |  |  | 2.5 | 94 | 71
CCn1c(=O)c2c(nc(/C=C/c3ccc(F)c(F)c3)n2C)n(CC)c1=O [Compound 54, (E)-8-(3,4-Difluorostyryl)-1,3-diethyl-7-methylxanthine] | > 300 | 5 | 28 | 18 | 96 | 95 |  | 94 | 63
CCn1c(=O)c2c(nc(/C=C/c3cc(OC)cc(OC)c3)n2C)n(CC)c1=O [Compound 68, (E)-8-(3,5-Dimethoxystyryl)-1,3-diethyl-7-methylxanthine] | > 300 | 5 | 80 | 5 |  |  |  | 88 | 81
COc1ccc(/C=C/c2nc3c(c(=O)n(C)c(=O)n3C)n2C)cc1Br [Compound 58, (E)-8-(3-Bromo-4-methoxystyryl)caffeine] | > 300 |  |  |  | 78 | 84 |  |  | 
CCn1c(=O)c2c(nc(/C=C/c3cccc(F)c3)n2C)n(CC)c1=O [Compound 66, (E)-1,3-Diethyl-8-(3-fluorostyryl)-7-methylxanthine] | > 300 |  |  |  |  |  |  | 93 | 78
CCn1c(=O)c2[nH]c(/C=C/c3ccc(OC)c(OC)c3Cl)nc2n(CC)c1=O [Compound 49, (E)-8-(2-Chloro-3,4-dimethoxystyryl)-1,3-diethylxanthine] | > 100 |  |  |  | 112 | 108 |  | 76 | 73
